23 compounds from patent US11555042B2, “Macrocyclic compounds as TRK kinases inhibitors” (FOCHON BIOSCIENCES, LTD., priority 2018, dated 2023) can be followed below.

Each structure is given as a SMILES string. pIC50: −log10 of the molar value.

In general, pIC50 refers to the negative decadic logarithm of the IC50, by convention in mol/L.

The target of one experiment is T1, ETV6-TRKC-G623R (Homo sapiens, UniProt Q16288, G623R).
T1 construct: fused on or other part: P41212 (Transcription factor ETV6)
T1 sequence (Q16288 whole entry G623R, the tested form may be a part): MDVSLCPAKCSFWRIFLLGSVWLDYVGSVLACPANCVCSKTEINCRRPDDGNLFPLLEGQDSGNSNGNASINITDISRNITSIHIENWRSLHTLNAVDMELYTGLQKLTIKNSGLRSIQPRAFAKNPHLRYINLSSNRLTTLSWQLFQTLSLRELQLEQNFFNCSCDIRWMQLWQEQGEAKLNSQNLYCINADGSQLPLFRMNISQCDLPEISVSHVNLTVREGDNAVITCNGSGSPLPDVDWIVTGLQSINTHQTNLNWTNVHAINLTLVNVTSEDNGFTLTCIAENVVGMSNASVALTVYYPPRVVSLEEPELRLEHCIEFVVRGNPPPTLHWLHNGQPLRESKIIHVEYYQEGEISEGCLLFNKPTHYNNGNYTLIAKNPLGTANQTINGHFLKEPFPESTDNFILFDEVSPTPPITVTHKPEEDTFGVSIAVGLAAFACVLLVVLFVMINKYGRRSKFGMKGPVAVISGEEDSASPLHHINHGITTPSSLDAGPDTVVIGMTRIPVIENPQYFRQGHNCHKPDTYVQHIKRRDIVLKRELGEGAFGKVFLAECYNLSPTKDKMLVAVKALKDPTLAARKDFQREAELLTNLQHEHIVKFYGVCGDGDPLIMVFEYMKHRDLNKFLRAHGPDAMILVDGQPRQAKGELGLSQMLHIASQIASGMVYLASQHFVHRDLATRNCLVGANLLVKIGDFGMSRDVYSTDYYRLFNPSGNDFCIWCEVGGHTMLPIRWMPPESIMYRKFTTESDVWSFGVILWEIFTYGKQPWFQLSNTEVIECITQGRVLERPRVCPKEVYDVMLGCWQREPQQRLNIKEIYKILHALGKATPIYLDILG
The experiment is described as follows: Engineered Ba/F3 cell proliferation inhibition (MTS), ETV6-TRKC-G623R. To be noted: 72 h. The experiment is classed as cell-based. The text has this:
(§1) MTS testing kit was purchased from Promega (Madison, Wis., USA). The RPMI-1640, Fetal bovine serum and Penicillin-Streptomycin were purchased from Gibco (San Francisco, Calif., USA). Dimethyl sulfoxide (DMSO) and Puromycin were purchased from Sigma (St. Louis., Mo., USA). Mouse interleukin-3 (IL-3) was purchased from Cell signaling Technology (Boston, Mass., USA).
To investigate whether a compound is able to inhibit the activity of TRK fusion mutation in cells, a mechanism-based assay using engineered Ba/F3 cell lines stably overexpressing oncogenic rearrangement or gene mutation of TRK (TPM3-TRKA, TPM3-TRKA-G595R, AFAP1-TRKB, ETV6-TRKC and ETV6-TRKC-G623R) were developed. In this assay, inhibition of TRK fusion mutation was detected by the cell proliferation inhibition of engineered Ba/F3 cells. Engineered Ba/F3 cells were cultured in culture flasks to 40-80% confluence in RPMI-1640 supplemented with 10% fetal bovine serum, 2 ug/mL puromycin. Cells were collected and plated onto 96-well plates at desired cell density (Ba/F3-TPM3-TRKA: 3×10^4/mL, Ba/F3-TPM3-TRKA-G595R: 1×10^5/mL, Ba/F3-AFAP1-TRKB: 1×10^5/mL, Ba/F3-ETV6-TRKC: 3×10^4/mL, Ba/F3-ETV6-TRKC-G623R: 3×10^4/mL). Plates were incubated at 37° C., with 5% CO2 for 4 h. Compounds were then added to the plates with the final compound concentrations of 10000, 3333, 1111, […], 123, 41.2, 13.7, 4.6 and 1.5 nM. Plates were incubated at 37° C., with 5% CO2 for 72 h. A mixture of 20 μl MTS/100 μl medium were added to each well and the plates were incubated at 37° C., with 5% CO2 for exactly 2 h. The reaction was stopped by adding 25 μl of 10% SDS per well. The absorbance was measured at 490 nm and 650 nm (reference wavelength). IC50 was calculated using GraphPad Prism 5.0 software.
On to `O=C1NCC2(CC2)COc2ncc(F)cc2[C@@]23C[C@@H]2CCN3c2ccn3ncc1c3n2` [Example 79, (1′R,3′E,4′E,5′S)-5′-fluorospiro-[cyclopropane-1,6′-4-oxa-2^2,8-diaza-1(5,3)-pyrazolo[1,5-a]pyrimidina-3(3,2)-pyridina-2(2,1)-bicyclo[3.1.0]hexana-cyclononaphan]-9′-one], for which the pIC50 was 9.00.
In the case of `CN1c2ccn3ncc(c3n2)C(=O)NCC(O)COc2ncc(F)cc2C12CC2` (centres unmarked) [Example 96, (3′E,4′E)-5′-fluoro-7′-hydroxy-2′-methyl-spiro[cyclopropane-1,3′-5-oxa-2,9-diaza-1(5,3)-pyrazolo[1,5-a]pyrimidina-4(3,2)-pyridinacyclodecaphan]-10′-one], the pIC50 is 8.40.
The same measure, in the same setting: the result for `[2H]C([2H])([2H])N1c2ccn3ncc(c3n2)C(=O)NC2(CC2)COc2ncc(F)cc2C12CC2` [Example 91, (3′E,4′E)-5′-fluoro-2′-(methyl-d3)dispiro-[cyclopropane-1,3′-5-oxa-2,8-diaza-1(5,3)-pyrazolo[1,5-a]pyrimidina-4(3,2)-pyridina-cyclononaphane-7′,1″-cyclopropan]-9′-one] reads 8.70.

The test system of the next experiment is KM12 cells. The experiment is described as follows: KM12 cells proliferation inhibition (MTS), mechanism-based assay for TRK. To be noted: 72 h. The experiment is classed as cell-based.
Source text: as §1
To investigate whether a compound is able to inhibit the activity of TRK in cells, a mechanism-based assay using KM12 cells was developed. In this assay, inhibition of TRK was detected by the inhibition of KM12 cells proliferation. KM12 cells were cultured in culture flasks to 40-80% confluence in RPMI-1640 plus 10% fetal bovine serum. Cells were collected and plated onto 96-well plates at 1000 cells/well. Plates were incubated at 37° C., with 5% CO2 for 4 h. Compounds were added to the plates, the final compound concentrations were […], 123.5, 41.2, 13.7, 4.6 and 1.5 nM. Place plates at 37° C., with 5% CO2 for KM12 cells 72 h. 20 μl MTS/100 μl medium mixture solution were added to each well and incubate the plates for exactly 2 h. Stop the reaction by adding 25 μl 10% SDS per well. Measure absorbance at 490 nm and 650 nm (reference wavelength). IC50 was calculated using GraphPad Prism 5.0.
Turning to `C[C@@H]1CCc2ccc(F)cc2C23CC2CCN3c2ccn3ncc(c3n2)C(=O)N1` (stereo partly drawn) [Example 12B, (1^3E,1^4E,6R)-3^5-fluoro-6-methyl-2^2,7-diaza-1(5,3)-pyrazolo[1,5-a]pyrimidina-2(2,1)-bicyclo[3.1.0]hexana-3(1,2)-benzenacyclooctaphan-8-one], the pIC50 was 8.70.
Still for that read-out and setting: the result for `C[C@@H]1CCc2ccc(F)cc2C23CC2CCN3c2ccc3ncc(n3n2)C(=O)N1` (single isomer, unassigned) [Example 33B] reads 9.00.

Staying with this experiment, now noted: Homo sapiens, KM12, 72 h.
`C[C@H]1CNC(=O)c2cnn3ccc(nc23)N2CCC3CC32c2cc(F)cnc2O1` (stereo partly drawn) [Example 7, (1^3E,1^4E,5S)-3^5-fluoro-5-methyl-4-oxa-2^2,7-diaza-1(5,3)-pyrazolo[1,5-a]pyrimidina-3(3,2)-pyridina-2(2,1)-bicyclo[3.1.0]hexanacyclooctaphan-8-one]: the pIC50 is 9.00.
Same read-out and setting: as for `C[C@H]1CNC(=O)c2cnc3ccc(nn23)N2CCC3CC32c2cc(F)cnc2O1` (stereo partly drawn) [Example 34, (5S,E)-3^5-fluoro-5-methyl-4-oxa-2^2,7-diaza-1(6,3)-imidazo[1,2-b]pyridazina-3(3,2)-pyridina-2(2,1)-bicyclo[3.1.0]-hexanacyclooctaphan-8-one], the figure is 9.00; as for `C[C@@H]1COc2ccc(F)cc2C23CC2CCN3c2ccc3ncc(n3n2)C(=O)N1` (stereo partly drawn) [Example 13, (6R,E)-3^5-fluoro-6-methyl-4-oxa-2^2,7-diaza-1(6,3)-imidazo[1,2-b]pyridazina-2(2,1)-bicyclo[3.1.0]hexana-3(1,2)-benzenacyclooctaphan-8-one], 9.00.
With `C[C@@H]1COc2ccc(F)cc2C2(CC2)N(C)c2ccc3ncc(n3n2)C(=O)N1` [Example 53, (7′R,E)-5′-fluoro-2′,7′-dimethylspiro-[cyclopropane-1,3′-5-oxa-2,8-diaza-1(6,3)-imidazo[1,2-b]pyridazina-4(1,2)-benzenacyclononaphan]-9′-one], the pIC50 was 7.52.
`C[C@@H]1CCc2ccc(F)cc2C23CC2CCN3c2ccn3ncc(c3n2)C(=O)N1` (stereo partly drawn) [Example 12A, (1^3E,1^4E,6R)-3^5-fluoro-6-methyl-2^2,7-diaza-1(5,3)-pyrazolo[1,5-a]pyrimidina-2(2,1)-bicyclo[3.1.0]hexana-3(1,2)-benzenacyclooctaphan-8-one] gave a pIC50 of 9.00.
On the same count and under the same terms, as for `C[C@H]1CNC(=O)c2cnn3ccc(nc23)NC2(CC2)c2cc(F)ccc2O1` [Example 4, (S,3′E,4′E)-5′-fluoro-6′-methylspiro[cyclopropane-1,3′-5-oxa-2,8-diaza-1(5,3)-pyrazolo[1,5-a]pyrimidina-4(1,2)-benzenacyclononaphan]-9′-one], the figure is 9.00; as for `C[C@@H]1CNC(=O)c2cnn3ccc(nc23)NC2(CC2)c2cc(F)cnc2O1` [Example 42, (R,3′E,4′E)-5′-fluoro-6′-methylspiro-[cyclopropane-1,3′-5-oxa-2,8-diaza-1(5,3)-pyrazolo[1,5-a]pyrimidina-4(3,2)-pyridina-cyclononaphan]-9′-one], 8.52.
In turn, `C[C@H]1CNC(=O)c2cnc3ccc(nn23)N2CCC3CC32c2cc(F)ccc2O1` (stereo partly drawn) [Example 32, (5S,E)-3^5-fluoro-5-methyl-4-oxa-2^2,7-diaza-1(6,3)-imidazo[1,2-b]pyridazina-2(2,1)-bicyclo[3.1.0]hexana-3(1,2)-benzenacyclo-octaphan-8-one] gave a pIC50 of 9.00.
`C[C@@H]1CCc2ncc(F)cc2C23CC2CCN3c2ccc3ncc(n3n2)C(=O)N1` (stereo partly drawn) [Example 35, (6R,E)-3^5-fluoro-6-methyl-2^2,7-diaza-1(6,3)-imidazo[1,2-b]pyridazina-3(3,2)-pyridina-2(2,1)-bicyclo[3.1.0]hexanacyclo-octaphan-8-one] had a pIC50 of 9.00.
Still for that read-out and setting: as for `C[C@@H]1CCc2ncc(F)cc2C2(CC2)Nc2ccn3ncc(c3n2)C(=O)N1` [Example 10, (R,3′E,4′E)-5′-fluoro-7′-methylspiro[cyclopropane-1,3′-2,8-diaza-1(5,3)-pyrazolo[1,5-a]pyrimidina-4(3,2)-pyridinacyclononaphan]-9′-one], the figure is 9.00; as for `C[C@H]1CNC(=O)c2cnn3ccc(nc23)NC2(CC2)c2cc(F)cnc2O1` [Example 9, (S,3′E,4′E)-5′-fluoro-6′-methylspiro[cyclopropane-1,3′-5-oxa-2,8-diaza-1(5,3)-pyrazolo[1,5-a]pyrimidina-4(3,2)-pyridinacyclononaphan]-9′-one], 8.15; as for `C[C@@H]1CCc2ccc(F)cc2C2(CC2)N(C)c2ccc3ncc(n3n2)C(=O)N1` [Example 56, (7′R,E)-5′-fluoro-2′,7′-dimethylspiro-[cyclopropane-1,3′-2,8-diaza-1(6,3)-imidazo[1,2-b]pyridazina-4(1,2)-benzenacyclononaphan]-9′-one], 8.52.
`C[C@@H]1COc2ncc(F)cc2C23CC2CCN3c2ccc3ncc(n3n2)C(=O)N1` (stereo partly drawn) [Example 14, (6R,E)-3^5-fluoro-6-methyl-4-oxa-2^2,7-diaza-1(6,3)-imidazo[1,2-b]pyridazina-3(3,2)-pyridina-2(2,1)-bicyclo[3.1.0]hexanacyclooctaphan-8-one] gave a pIC50 of 9.00.
Take `C[C@@H]1COc2ncc(F)cc2C23CC2CCN3c2ccn3ncc(c3n2)C(=O)N1` (stereo partly drawn) [Example 6, (1^3E,1^4E,6R)-3^5-fluoro-6-methyl-4-oxa-2^2,7-diaza-1(5,3)-pyrazolo[1,5-a]-pyrimidina-3(3,2)-pyridina-2(2,1)-bicyclo[3.1.0]hexanacyclooctaphan-8-one]: the pIC50 is 9.00.
Still for that read-out and setting: as for `C[C@@H]1COc2ccc(F)cc2C23CC2CCN3c2ccn3ncc(c3n2)C(=O)N1` (stereo partly drawn) [Example 1, (1^3E,1^4E,6R)-3^5-fluoro-6-methyl-4-oxa-2^2,7-diaza-1(5,3)-pyrazolo[1,5-a]pyrimidina-2(2,1)-azabicyclo[3.1.0]hexana-3(1,2)-benzenacyclooctaphan-8-one], the figure is 9.00; as for `C[C@@H]1CCc2ccc(F)cc2C23CC2CCN3c2ccc3ncc(n3n2)C(=O)N1` (single isomer, unassigned) [Example 33A], 9.00.
Still for that read-out and setting: as for `C[C@@H]1COc2ccc(F)cc2C2(CC2)Nc2ccn3ncc(c3n2)C(=O)N1` [Example 2, (R,3′E,4′E)-5′-fluoro-7′-methylspiro[cyclopropane-1,3′-5-oxa-2,8-diaza-1(5,3)-pyrazolo[1,5-a]pyrimidina-4(1,2)-benzenacyclononaphan]-9′-one], the figure is 9.00; as for `C[C@@H]1CCc2ncc(F)cc2C23CC2CCN3c2ccn3ncc(c3n2)C(=O)N1` (stereo partly drawn) [Example 5, (1^3E,1^4E,6R)-3^5-fluoro-6-methyl-2^2,7-diaza-1(5,3)-pyrazolo[1,5-a]pyrimidina-3(3,2)-pyridina-2(2,1)-bicyclo[3.1.0]hexanacyclooctaphan-8-one], 9.00.
